Reference: patent US20250120967A1, “TYROSINE KINASES INHIBITORS AND USES THEREOF” (GREAT NOVEL THERAPEUTICS BIOTECH & MEDICALS CORPORATION, priority 2023, published 2025)

Legend:
Assay in all cases: Tyrosine kinase inhibition assay
Type in all cases: biochemical
Conditions in all cases: single concentration 1.0 μM, read-out: percent inhibition
[1] = molecular target: PIK3CD/PIK3R1 (p110 delta/p85 alpha) (Homo sapiens, UniProt O00329)
In short: (§1)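 Kinase activity was measured by Z′-LYTE peptide assay with ATP at the apparent Km, in kinase buffer (50 mM HEPES pH 7.5, 0.01% BRIJ-35, 10 mM MgCl2, 1 mM EGTA) with 1% DMSO final. Compounds were tested at a single 1.0 μM concentration and reported as percent inhibition; >80% counted as a hit.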

AKT2 (PKB beta) = AKT2 (PKB beta) (Homo sapiens, UniProt P31751)
In short: as §1

BRAF V599E = BRAF V599E (Homo sapiens, UniProt P15056, V600E)
In short: as §1

PDGFRB (PDGFR beta) = PDGFRB (PDGFR beta) (Homo sapiens, UniProt P09619)
In short: as §1

EPHA7 = EPHA7 (Homo sapiens, UniProt Q15375)
In short: as §1

[2] = molecular target: PIK3CB/PIK3R1 (p110 beta/p85 alpha) (Homo sapiens, UniProt P42338)
In short: as §1

AKT1 (PKB alpha) = AKT1 (PKB alpha) (Homo sapiens, UniProt P31749)
In short: as §1

EPHB1 = molecular target: T1, EPHB1 (Homo sapiens, UniProt P54762)
T1 sequence (P54762 18-984): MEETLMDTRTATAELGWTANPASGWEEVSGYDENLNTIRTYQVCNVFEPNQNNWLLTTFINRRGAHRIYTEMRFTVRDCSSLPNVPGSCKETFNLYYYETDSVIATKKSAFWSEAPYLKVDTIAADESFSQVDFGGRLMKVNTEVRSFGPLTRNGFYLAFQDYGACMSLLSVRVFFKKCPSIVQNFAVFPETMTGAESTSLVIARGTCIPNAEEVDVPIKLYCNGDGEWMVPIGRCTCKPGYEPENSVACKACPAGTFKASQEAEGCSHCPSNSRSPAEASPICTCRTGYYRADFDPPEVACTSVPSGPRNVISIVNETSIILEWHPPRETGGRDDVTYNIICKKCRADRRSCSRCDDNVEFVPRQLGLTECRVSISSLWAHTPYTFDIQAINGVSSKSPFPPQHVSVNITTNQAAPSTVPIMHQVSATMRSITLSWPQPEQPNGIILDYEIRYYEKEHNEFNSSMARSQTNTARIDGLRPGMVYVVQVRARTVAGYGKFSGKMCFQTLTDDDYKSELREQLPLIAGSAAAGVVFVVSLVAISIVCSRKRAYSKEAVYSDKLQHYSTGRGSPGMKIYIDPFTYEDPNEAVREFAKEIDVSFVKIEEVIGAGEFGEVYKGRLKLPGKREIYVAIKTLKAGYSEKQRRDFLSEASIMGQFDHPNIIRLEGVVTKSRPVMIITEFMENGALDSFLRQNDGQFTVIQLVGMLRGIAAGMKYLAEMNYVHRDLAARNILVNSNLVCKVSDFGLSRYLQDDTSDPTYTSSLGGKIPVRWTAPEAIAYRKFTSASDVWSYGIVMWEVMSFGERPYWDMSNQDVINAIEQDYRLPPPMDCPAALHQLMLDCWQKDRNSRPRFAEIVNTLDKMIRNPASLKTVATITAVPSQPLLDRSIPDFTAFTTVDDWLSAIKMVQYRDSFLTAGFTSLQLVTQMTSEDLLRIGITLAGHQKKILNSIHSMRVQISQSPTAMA
In short: as §1

ALK = ALK (Homo sapiens, UniProt Q9UM73)
In short: as §1

EPHA4 = EPHA4 (Homo sapiens, UniProt P54764)
In short: as §1

PIK3CG (p110 gamma) = PIK3CG (p110 gamma) (Homo sapiens, UniProt P48736)
In short: as §1

ITK = molecular target: T2, ITK (Homo sapiens, UniProt Q08881)
T2 sequence (Q08881 1-620): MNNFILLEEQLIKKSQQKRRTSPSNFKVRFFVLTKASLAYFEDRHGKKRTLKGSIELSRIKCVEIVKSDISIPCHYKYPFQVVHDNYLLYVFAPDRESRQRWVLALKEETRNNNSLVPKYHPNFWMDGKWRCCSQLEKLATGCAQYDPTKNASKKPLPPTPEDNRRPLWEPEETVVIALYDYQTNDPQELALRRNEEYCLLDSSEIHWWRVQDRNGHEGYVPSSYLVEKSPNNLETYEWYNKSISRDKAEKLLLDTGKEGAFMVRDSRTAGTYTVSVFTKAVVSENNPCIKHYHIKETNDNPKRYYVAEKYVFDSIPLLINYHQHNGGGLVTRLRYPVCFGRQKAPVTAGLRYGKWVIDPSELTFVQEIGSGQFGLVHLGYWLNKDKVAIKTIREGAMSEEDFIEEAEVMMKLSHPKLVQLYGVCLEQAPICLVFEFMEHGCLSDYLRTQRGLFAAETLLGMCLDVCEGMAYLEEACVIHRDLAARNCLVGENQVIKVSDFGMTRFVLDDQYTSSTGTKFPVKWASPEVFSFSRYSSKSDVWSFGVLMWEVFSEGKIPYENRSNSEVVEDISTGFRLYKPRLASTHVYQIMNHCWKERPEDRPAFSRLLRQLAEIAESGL
In short: as §1

PIK3CB/PIK3R1 (p110 beta/p85 alpha), sequence (P42338 whole entry): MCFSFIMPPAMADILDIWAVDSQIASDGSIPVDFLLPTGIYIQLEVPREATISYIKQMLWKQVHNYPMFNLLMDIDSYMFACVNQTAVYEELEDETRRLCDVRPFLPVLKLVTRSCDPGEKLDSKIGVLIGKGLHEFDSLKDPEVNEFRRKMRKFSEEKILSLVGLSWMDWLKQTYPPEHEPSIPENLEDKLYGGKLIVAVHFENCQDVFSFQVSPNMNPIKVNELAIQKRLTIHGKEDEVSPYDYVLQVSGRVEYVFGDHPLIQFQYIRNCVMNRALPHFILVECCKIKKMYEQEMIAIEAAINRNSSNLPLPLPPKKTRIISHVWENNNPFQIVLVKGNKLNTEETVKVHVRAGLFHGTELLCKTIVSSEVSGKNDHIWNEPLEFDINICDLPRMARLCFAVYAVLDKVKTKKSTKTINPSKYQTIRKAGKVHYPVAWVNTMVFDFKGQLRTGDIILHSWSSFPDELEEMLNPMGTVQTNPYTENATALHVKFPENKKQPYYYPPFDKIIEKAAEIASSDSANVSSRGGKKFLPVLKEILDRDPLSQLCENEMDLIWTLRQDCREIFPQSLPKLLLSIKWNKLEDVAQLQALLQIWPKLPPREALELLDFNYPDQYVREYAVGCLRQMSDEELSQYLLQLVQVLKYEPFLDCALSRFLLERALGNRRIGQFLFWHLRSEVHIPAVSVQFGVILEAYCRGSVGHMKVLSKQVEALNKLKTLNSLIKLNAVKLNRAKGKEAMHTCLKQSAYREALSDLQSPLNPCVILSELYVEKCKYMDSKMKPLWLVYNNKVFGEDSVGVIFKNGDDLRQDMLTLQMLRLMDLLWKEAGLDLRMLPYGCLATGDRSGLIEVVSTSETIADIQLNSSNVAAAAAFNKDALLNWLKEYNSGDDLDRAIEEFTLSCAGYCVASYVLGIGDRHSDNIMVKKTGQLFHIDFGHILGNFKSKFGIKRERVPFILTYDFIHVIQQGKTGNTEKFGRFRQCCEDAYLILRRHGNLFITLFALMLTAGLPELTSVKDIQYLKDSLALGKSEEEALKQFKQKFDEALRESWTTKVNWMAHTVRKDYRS
PIK3CB/PIK3R1 (p110 beta/p85 alpha), sequence (P27986 whole entry partner): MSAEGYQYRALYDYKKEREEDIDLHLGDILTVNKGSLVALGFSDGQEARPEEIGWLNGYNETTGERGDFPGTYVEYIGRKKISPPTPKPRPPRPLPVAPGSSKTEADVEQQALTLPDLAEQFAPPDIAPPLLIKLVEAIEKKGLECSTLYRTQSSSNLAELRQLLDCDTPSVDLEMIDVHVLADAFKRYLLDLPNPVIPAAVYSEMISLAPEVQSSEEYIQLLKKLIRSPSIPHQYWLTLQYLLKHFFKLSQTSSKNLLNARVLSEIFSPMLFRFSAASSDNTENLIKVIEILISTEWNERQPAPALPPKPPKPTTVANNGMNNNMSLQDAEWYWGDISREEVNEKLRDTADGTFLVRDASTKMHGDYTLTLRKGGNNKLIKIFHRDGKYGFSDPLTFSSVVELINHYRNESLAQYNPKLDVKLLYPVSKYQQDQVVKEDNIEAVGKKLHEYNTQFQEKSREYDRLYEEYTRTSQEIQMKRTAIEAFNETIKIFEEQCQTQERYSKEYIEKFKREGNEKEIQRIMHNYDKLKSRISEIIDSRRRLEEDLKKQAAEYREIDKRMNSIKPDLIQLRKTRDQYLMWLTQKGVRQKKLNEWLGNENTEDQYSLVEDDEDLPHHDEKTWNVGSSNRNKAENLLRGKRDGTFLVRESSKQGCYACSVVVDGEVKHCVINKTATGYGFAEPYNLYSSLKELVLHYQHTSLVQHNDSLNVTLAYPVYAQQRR
ALK, sequence (Q9UM73 19-1620): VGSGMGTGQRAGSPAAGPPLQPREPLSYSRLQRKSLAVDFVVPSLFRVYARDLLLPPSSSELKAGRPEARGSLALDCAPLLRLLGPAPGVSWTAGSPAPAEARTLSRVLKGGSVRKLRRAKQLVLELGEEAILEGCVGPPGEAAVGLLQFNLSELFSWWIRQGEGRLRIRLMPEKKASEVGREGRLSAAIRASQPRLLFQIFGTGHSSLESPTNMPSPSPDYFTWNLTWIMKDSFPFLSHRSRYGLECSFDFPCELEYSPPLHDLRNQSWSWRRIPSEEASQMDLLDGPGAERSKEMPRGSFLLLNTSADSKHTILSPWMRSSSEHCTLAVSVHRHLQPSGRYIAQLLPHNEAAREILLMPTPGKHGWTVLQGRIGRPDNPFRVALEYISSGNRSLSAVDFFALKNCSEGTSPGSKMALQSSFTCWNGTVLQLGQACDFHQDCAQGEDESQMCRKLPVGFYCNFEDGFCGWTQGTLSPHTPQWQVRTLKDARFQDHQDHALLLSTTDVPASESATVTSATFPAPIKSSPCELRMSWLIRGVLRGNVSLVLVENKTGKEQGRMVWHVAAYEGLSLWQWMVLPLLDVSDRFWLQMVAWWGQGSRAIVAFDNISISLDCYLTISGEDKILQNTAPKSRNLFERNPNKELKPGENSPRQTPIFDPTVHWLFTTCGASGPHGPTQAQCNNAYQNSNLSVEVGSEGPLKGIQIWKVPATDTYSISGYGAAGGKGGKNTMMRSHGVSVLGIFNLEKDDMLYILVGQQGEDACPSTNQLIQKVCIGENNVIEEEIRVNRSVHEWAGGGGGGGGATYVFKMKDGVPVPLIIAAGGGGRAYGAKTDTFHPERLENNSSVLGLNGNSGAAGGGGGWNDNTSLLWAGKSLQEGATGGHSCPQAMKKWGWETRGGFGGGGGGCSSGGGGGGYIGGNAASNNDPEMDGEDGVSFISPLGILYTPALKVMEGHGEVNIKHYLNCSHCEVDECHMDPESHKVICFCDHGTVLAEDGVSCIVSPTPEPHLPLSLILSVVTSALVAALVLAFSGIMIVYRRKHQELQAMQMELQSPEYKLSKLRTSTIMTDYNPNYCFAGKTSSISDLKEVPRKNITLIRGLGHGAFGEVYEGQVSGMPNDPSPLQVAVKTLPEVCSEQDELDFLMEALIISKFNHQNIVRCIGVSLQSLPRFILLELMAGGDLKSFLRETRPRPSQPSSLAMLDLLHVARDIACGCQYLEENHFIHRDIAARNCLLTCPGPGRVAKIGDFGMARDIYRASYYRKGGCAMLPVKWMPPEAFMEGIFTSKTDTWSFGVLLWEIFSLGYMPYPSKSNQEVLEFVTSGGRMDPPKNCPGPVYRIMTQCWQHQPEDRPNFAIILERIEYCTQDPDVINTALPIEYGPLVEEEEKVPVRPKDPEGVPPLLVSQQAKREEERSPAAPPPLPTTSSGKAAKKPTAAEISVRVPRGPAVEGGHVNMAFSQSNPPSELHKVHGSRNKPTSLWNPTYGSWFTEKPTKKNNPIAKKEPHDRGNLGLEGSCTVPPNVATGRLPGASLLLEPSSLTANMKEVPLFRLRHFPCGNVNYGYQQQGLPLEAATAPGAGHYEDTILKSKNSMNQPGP
PIK3CG (p110 gamma), sequence (P48736 whole entry): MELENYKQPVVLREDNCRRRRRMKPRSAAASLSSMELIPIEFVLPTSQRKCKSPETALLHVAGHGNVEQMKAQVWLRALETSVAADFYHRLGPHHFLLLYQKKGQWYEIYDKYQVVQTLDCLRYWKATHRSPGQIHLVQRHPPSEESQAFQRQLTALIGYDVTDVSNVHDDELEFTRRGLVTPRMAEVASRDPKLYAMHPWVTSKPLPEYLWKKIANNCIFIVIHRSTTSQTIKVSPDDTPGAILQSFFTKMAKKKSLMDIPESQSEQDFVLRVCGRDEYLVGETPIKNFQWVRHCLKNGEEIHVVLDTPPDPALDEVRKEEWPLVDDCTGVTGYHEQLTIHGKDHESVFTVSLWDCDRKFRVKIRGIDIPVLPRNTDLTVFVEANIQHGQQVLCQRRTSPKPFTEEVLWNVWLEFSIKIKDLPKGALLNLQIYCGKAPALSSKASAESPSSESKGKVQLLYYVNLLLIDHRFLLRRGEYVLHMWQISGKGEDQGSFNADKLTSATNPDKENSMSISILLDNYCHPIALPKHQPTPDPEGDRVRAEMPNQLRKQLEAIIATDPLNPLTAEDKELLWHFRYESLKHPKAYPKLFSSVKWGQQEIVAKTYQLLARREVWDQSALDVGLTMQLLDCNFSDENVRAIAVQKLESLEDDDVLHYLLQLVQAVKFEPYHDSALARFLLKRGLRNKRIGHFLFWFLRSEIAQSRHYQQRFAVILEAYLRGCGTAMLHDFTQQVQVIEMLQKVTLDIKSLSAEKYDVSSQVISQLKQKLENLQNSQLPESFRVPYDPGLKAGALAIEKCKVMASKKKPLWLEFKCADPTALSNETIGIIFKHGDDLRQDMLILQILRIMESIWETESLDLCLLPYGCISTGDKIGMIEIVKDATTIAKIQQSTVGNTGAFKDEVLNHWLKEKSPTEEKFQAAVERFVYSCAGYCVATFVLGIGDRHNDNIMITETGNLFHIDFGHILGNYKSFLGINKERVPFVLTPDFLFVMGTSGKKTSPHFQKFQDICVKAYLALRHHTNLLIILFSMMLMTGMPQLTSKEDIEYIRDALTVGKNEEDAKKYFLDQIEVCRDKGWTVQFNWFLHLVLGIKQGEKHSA
AKT2 (PKB beta), sequence (P31751 whole entry): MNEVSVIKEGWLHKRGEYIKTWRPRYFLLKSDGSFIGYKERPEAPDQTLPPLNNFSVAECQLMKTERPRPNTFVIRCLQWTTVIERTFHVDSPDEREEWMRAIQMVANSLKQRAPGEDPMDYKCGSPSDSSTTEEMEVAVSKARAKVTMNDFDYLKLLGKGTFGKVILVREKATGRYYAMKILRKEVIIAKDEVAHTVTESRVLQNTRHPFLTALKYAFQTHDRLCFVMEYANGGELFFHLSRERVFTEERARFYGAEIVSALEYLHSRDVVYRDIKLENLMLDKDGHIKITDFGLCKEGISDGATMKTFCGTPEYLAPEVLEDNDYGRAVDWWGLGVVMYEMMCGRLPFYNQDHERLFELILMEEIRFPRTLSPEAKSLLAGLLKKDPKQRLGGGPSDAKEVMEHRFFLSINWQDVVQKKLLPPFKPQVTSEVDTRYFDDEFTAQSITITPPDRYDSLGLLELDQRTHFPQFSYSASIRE

SMILES | inhibition at 1 µM [1] | inhibition at 1 µM (AKT2 (PKB beta)) | inhibition at 1 µM (BRAF V599E) | inhibition at 1 µM (PDGFRB (PDGFR beta)) | inhibition at 1 µM (EPHA7) | inhibition at 1 µM [2] | inhibition at 1 µM (AKT1 (PKB alpha)) | inhibition at 1 µM (EPHB1) | inhibition at 1 µM (ALK) | inhibition at 1 µM (EPHA4) | inhibition at 1 µM (PIK3CG (p110 gamma)) | inhibition at 1 µM (ITK)
COc1cc2nccc(Oc3ccc(NC(=O)C4(C(=O)Nc5ccc(F)cc5)CC4)cc3F)c2cc1Oc1ccc(N)cc1F [Cbo-23] | 2% | 0% | 5% | 56% | 100% | -4% | 4% | 99% | 78% | 100% | -7% | 54%
COc1cc2nccc(Oc3ccc(NC(=O)C4(NC(=O)c5ccc(F)cc5)CC4)cc3F)c2cc1Oc1ccc(N)cc1F [Cbo-10] | 12% | 5% | 2% | 52% | 98% | 22% | 0% | 74% | 36% | 91% | 9% | 25%
COc1cc2nccc(Oc3ccc(NC(=O)C4(NC(=O)c5ccc(F)cc5)CC4)cc3F)c2cc1OC [Cbo-02, N-(1-((4-((6,7-diMethoxyquinolin-4-yl)oxy)-3-fluorophenyl)carbamoyl)cyclopropyl)-4-fluorobenzamide] | -6% | 10% | 1% | 34% | 84% | 3% | 2% | 37% | 20% | 79% | 4% | 8%
COc1cc2nccc(Oc3ccc(NC(=O)C4(NC(=O)c5ccc(F)cc5)CC4)cc3F)c2cc1Oc1c(F)cc(N)cc1F [Cbo-14] | 16% | 10% | -3% | 56% | 101% | 0% | 2% | 75% | 32% | 89% | 6% | 28%
COc1cc2nccc(Oc3ccc(NC(=O)C4(C(=O)Nc5ccc(F)cc5)CC4)cc3)c2cc1OC [Cabozantinib, reference compound] | -1% | 17% | 24% | 73% | 106% | 2% | 3% | 99% | 28% | 100% | 14% | 15%
